Reference: patent US4015017A, “Certain biphenyl derivatives used to treat disorders caused by increased capillary permeability” (Laboratoires Pharmascience, priority 1974, dated 1977)
Like-named read-outs stand apart in the source and are kept apart here.

Legend:
[1] = biological target: T1, catechol-O-methyltransferase (Rattus norvegicus, UniProt P22734); assay: Protection of the catecholamines: incubation of catechol-O-methyltransferase with adrenalin and orthodiphenol (method of Axelrod); assay type: biochemical; settings: stoichiometric amounts of adrenalin and orthodiphenol, after 30 minutes
T1 sequence (P22734 1-221 isoform P22734-2): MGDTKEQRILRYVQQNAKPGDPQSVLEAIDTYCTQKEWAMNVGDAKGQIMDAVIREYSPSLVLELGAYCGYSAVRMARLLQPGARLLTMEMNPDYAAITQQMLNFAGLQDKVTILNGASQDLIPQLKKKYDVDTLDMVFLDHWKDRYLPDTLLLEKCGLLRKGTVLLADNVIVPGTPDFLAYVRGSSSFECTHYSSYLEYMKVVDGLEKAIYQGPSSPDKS
Excerpt: Whether administered orally or parenterally they undergo in the organism a monomethylation on one of the two hydroxyl groups, as do all orthodiphenols, (J. Axelrod and M. J. Laroche, 1959, Science, 130, p 800). This monomethylation is due to the action of the catechol-O-methyltransferases (C.O.M.T.), S-adenosyl-L-methionine providing the methyl radicals (J. Axelrod and R. Tomchick, 1958, J. Biol. Chem. 233 p.702). This methylation occurs in the physiological catecholamines, for example, adrenalin, as well as in the synthetic orthodiphenols.
As methylation is a first stage in the destructive pathway, this competition serves to protect the natural catecholamines from early destruction, (J. M. Gazave, P. Canu, M. Baques, and F. Martin, 1971, Biochem and Experim. Biol., X p.89).
Using the techniques of Axelrod et al (op.cit.) it is possible to quantify this effect for various compounds, as the intensity of the effect varies, being dependent on the chemical composition and physical properties, especially the solubility of the compound.
By incubating a catechol-O-methyltransferase with stoichiometric amounts of adrenalin and an orthodiphenol according to the method of Axelrod, determining the quantity of adrenalin protected ie. non-methylated after 30 minutes the extent of the protection given by the product studied can be evaluated.

guinea pig = assay: Capillary resistance on the guinea pig (technique of Parrot and Canu); assay type: in vivo
Excerpt: Experiments on capillary resistance on the guinea pig using the technique of J-L. Parrot and P. Canu, 1964, Arch. […] (By comparison trioxyethylrutine gives an increase of 13%).

mice = assay: Anti-inflammation effect on vessels using croton oil on mice (technique of Bounameaux and Lecomto); assay type: in vivo
Excerpt: Some of the compounds of the formula I have other interesting properties. Thus the anti-inflammation effect on vessels evaluated according to the technique of Y. Bounameaux and J. Lecomto, 1955, C.R. Soc.

in vivo [2] = settings: rat, ip, acute toxicity, intraperitoneal administration, rats, read-out: DL50 A. IP
in vivo [3] = settings: rat, acute toxicity, oral administration, rats, read-out: DL 50 A.O
rats = assay: Research into the methemoglobinising properties (spectrophotometric technique of Evelyn and Malby); assay type: in vivo; settings: rats treated for 75 days at 0.20 g per kg body weight per day
Excerpt: Certain phenols, in particular pyrocatechol (1,2-dihydroxybenzene) and pyrogallol (1,2,3-trihydroxybenzene), when administered either orally or parenterally to an organism bring about a transformation of the oxyhaemoglobin of the blood to methemoglobin. In oxyhaemoglobin, the iron is in the ferrous state (Fe^+^+) and can transport oxygen; whereas in methemoglobin, the iron is in the ferric state (Fe ^+^+^+) and is unsuitable for transporting oxygen.
It therefore appeared necessary to try to discover if the polyhydroxy compounds used in the preparations of the present invention, in particular 2,3,3',4,4',5'-hexahydroxy benzophenone, would also act as methemoglobinising agents.
This study was carried out using pyrogallol as the comparative substance and the spectrophotometric technique of Evelyn and Malby, (in R. Lecoq, 1972, Analyses Medicales, 2, p.1699): […]

| SMILES | protection of adrenalin (non-methylated) [1] [%] | increase in the capillary resistance (guinea pig) [%] | also measured |
| --- | --- | --- | --- |
| O=C(c1ccc(O)c(O)c1)c1cccc(O)c1O [2,3,3',4'-Tetrahydroxybenzophenone, 2,3,3',4'-tetrahydroxybenzophenone] | ≥ 90 | 56 | anti-inflammation effect on vessels (mice): anti-inflammatory properties |
| O=C(c1cc(O)c(O)c(O)c1)c1ccc(O)c(O)c1O [2,3,3',4,4',5'-Hexahydroxybenzophenone, 2,3,3',4,4',5'-hexahydroxybenzophenone] | 100 | 82 | LD50 (in vivo [2]): 355 mg/kg; LD50 (in vivo [3]): 1420 mg/kg; methemoglobin in the blood (rats): no methemoglobin could be detected |
| O=C(c1ccc(O)c(O)c1)c1ccc(O)c(O)c1O [2,3,3',4,4'-pentahydroxybenzophenone] | 100 | – | – |
| O=C(c1ccc(O)c(O)c1)c1cc(O)c(O)c(O)c1 [3,3',4,4' ,5'-pentahydroxybenzophenone, 3,3',4,4',5'-pentahydroxybenzophenone] | 100 | – | anti-inflammation effect on vessels (mice): anti-inflammatory properties |
| O=C(C(=O)c1ccc(O)c(O)c1)c1ccc(O)c(O)c1 [3,3',4,4'-tetrahydroxybenzile, 3,3',4,4'-tetrahydroxybenzil] | 100 | – | – |
| O=C(c1ccc(O)c(O)c1)c1ccc(O)c(O)c1 [3,3',4,4'-tetrahydroxybenzophenone] | 100 | – | – |
| Oc1ccc(Cc2ccc(O)c(O)c2)cc1O [di-(3,4-dihydroxyphenyl) methane, di-(3,4-dihydroxyphenyl)-methane] | ≥ 90 | – | – |
| C[C@@H]1O[C@@H](OC[C@H]2O[C@@H](Oc3c(-c4ccc(OCCO)c(OCCO)c4)oc4cc(OCCO)cc(O)c4c3=O)[C@H](O)[C@@H](O)[C@@H]2O)[C@H](O)[C@H](O)[C@H]1O [trioxyethylrutine, reference compound] | – | 13 | – |
| O=C(Cc1ccc(O)c(O)c1)c1ccc(O)c(O)c1O [β-(3,4-dihydroxyphenyl)-2,3,4-trihydroxyacetophenone] | – | 34 | LD50 (in vivo [2]): 730 mg/kg; LD50 (in vivo [3]): 2000 mg/kg |
| O=C(Cc1ccc(O)c(O)c1)c1ccc(O)c(O)c1 [β-(3,4-dihydroxyphenyl)-3,4-dihydroxyacetophenone] | ≥ 90 | – | – |
